Where two headings read alike, the source gives them in different places.
How the values were obtained:
[1] = Core body temperature measurement; format: in vivo, C57BL/6J mice
Description: Core body temperatures were recorded from age-matched male and female C57BL/6J mice prior to treatment (Time 0) and 30 min, 60 min, 120 min, and 300 min post-treatment using a rectal probe thermometer for mice (Thermalert Model TH-8, Physitemp Instruments, Inc., Clifton, NJ). On three days of the week leading up to the study, animals were handled and temperatures were taken to acclimate the animals to the procedure.
(§1) SBI-553 treatment was not associated with hypothermia or hypotension. In addition to modulating motivated behavior. […] SBI-553 (at 2-30 mg/kg, i.p.) had no effect on core body temperature (FIG. 6B). […] This was an effect not secondary to hypothermia as body temperature was maintained by thermal support. These findings indicate that a Gq protein-dependent mechanism mediates NTSR1-associated side effects and is not engaged by SBI-553. Consistent with an antagonist like action at NTSR1.

[2] = Central blood pressure (systolic ventricular pressure) in anesthetized mice; format: in vivo, C57BL/6J mice; conditions: 12 mg/kg, i.p.
Description: as §1

[3] = Cocaine- and methamphetamine-induced hyperlocomotion, open field; format: in vivo, mice (C57BL/6J background); conditions: 12 mg/kg i.p., WT mice
Description: Once stable performance was achieved, self-administration was assessed once daily in 60 min sessions. Animals received vehicle (saline, i.p.) or SBI-553 (2, 6, or 12 mg/kg, i.p.) immediately prior to placement into self-administration chambers with access to cocaine at doses of 0.1, 0.3, 0.5, or 1 mg/kg/infusion. FIG. 7B-FIG. 7C show cocaine-induced and methamphetamine-induced hyperlocomotion.
Open-field testing is used to analyze animal movement. The Accuscan open field (Omnitech Electronics, Inc.) was used to assess locomotor activity as previously described (Toth et al., 2018: Slosky L M, et al. (2020)). Here, animal movement is determined by the breaking of gridded photocell beams.
The effect of SBI-553 on cocaine self-administration was both cocaine-dose dependent and SBI-553-dose dependent. […] In the presence of β-arrestin2, SBI-553 reduced activity in mice. A 12 mg/kg (i.p.) dose of SBI-553 decreased both cocaine-and methamphetamine-induced hyperlocomotion in wild-type (WT) mice on a C57BL/6J background (FIG. 7B-FIG. 7C). […] Conversely, a significant reduction in locomotion was absent in global β-arrestin2 KO mice (Slosky L M, et al. (2020) Cell. 181(6):1364-1379e14).

[4] = Pharmacokinetics in mouse; format: in vivo
Pharmacokinetics in rat = format: in vivo
[5] = Pharmacokinetics in monkey (IV and PO); format: in vivo; conditions: for AUC: monkey; for MRT last: read-out: MRT0-last
[6] = Plantar incision-induced post-operative pain (mechanical allodynia) in WT and Arrb2 KO mice; format: in vivo; conditions: 12 mg/kg IP
[7] = Whole body plethysmography (respiratory depression); format: in vivo, mice
Text: Third, plethysmography is used to examine whether SBI-553 and IND ready analog SBI-810 can be administered to mice intraperitoneally, intravenously, or intrathecally without respiratory depression. Using plethysmography determine whether SBI-553 and IND ready analog SBI-810 can be administered to mice (e.g., C57BL6J) intraperitonially, intravenously, or intrathecally without respiratory depression. […] The “Buxco FinePointe Whole Body Plethysmography 4-Site System” was used to assess whether any IND analogs like the SBI-810 in the same system following intraperitoneal, intravenous, or intrathecal administration. Here. C57BL6J mice are assessed using UWBP, a technique that provides a, non-invasive, quantitative means to assess and analyze respiratory parameters. This will include tidal volume, minute volume, inspiratory duty cycle, inspiratory flow rate and the ratio of inspiration time to expiration time using a repeated measures approach to determine lung function on the same animal under multiple treatment conditions.

[8] = global β-arrestin2 KO mice; cited from earlier work
[9] = mouse, in vivo; cited from earlier work
[10] = Rotarod test of motor function; conditions: i.t. injection
[11] = Paclitaxel (PTX)-induced mechanical allodynia, von Frey paw withdrawal threshold; conditions: i.t., 1 mg≈2 nmol as printed
lamina IIo neurons = test system: lamina IIo neurons; design: dose or concentration left out as unconfirmed; conditions: slices of PTX-treated mice
[12] = brain, 30 mg/kg, 30 mpk po (pa [sic]), 1 h, read-out: brain:plasma @ 1 h
[13] = plasma, 30 mg/kg, 5 mpk iv and 30 mpk po

With `COc1ccccc1C1CCN(c2nc(C3(F)CC3)nc3ccc(N(C)CCO)cc23)CC1` [SBI-553] the Core body temperature ([1]; 2-30 mg/kg, i.p.) was “no effect”, the “Reversal of PD149163-associated decrease in body temperature” value ([1]; pretreatment p.o. 30 min prior to PD149163 (i.p.)) was “dose-dependently reversed” and the “Hemodynamic parameters versus vehicle” value [2] was “no differences”. The Cocaine-induced hyperlocomotion ([3]; cocaine 30 mg/kg i.p.) was “decreased”, the Methamphetamine-induced hyperlocomotion ([3]; methamphetamine 2 mg/kg i.p.) was “decreased” and the CIp ([4]; 5 mpk iv (printed tv)) was 44.8 mL/min/kg. The Vd ([4]; 5 mpk iv (printed tv)) was 6.16 L/kg, the Cmax ([4]; 30 mpk po (pa [sic])) was 1460 ng/mL and the T2/2 ([4]; 30 mpk po (pa [sic])) was 5.28 h. It also gave a Kp at 1 h [4, 12] of 54, a bioavailability [4, 13] of 45% and an AUC ([4]; route not marked) of 4824 ng·h/mL. It also gave a CIp (Pharmacokinetics in rat; 5 mpk iv (printed tv)) of 81 mL/min/kg, a Vd (Pharmacokinetics in rat; 5 mpk iv (printed tv)) of 7.02 L/kg and a Cmax (Pharmacokinetics in rat; 30 mpk po (pa [sic])) of 3482 ng/mL. The T2/2 (Pharmacokinetics in rat; 30 mpk po (pa [sic])) was 2.23 h, the Kp at 1 h (Pharmacokinetics in rat; [12]) was 0.98 and the bioavailability (Pharmacokinetics in rat; [13]) was 48%. It also gave an AUC (Pharmacokinetics in rat; route not marked) of 2693 ng·h/mL, a Co ([5]; Monkey, IV 5 mg/kg) of 4572 ng/mL and a T2/2 ([5]; Monkey, IV 5 mg/kg) of 4.78 h. The CI ([5]; Monkey, PO 20 mg/kg) was 8 mL/min/kg, the Co ([5]; Monkey, PO 20 mg/kg) was 67.6 ng/mL and the Levels in plasma ([5]; following i.v. and p.o. dosing) was “good levels in plasma”. It also gave an AUC ([5]; plasma, iv, 5 mg/kg, Monkey, IV 5 mg/kg, read-out: AUCo-inf) of 4340 ng·h/mL, an AUC ([5]; plasma, iv, 5 mg/kg, Monkey, IV 5 mg/kg, read-out: AUCo-last) of 4280 ng·h/mL and an AUC ([5]; plasma, po, 20 mg/kg, Monkey, PO 20 mg/kg, read-out: AUCo-inf) of 864 ng·h/mL. It also gave an AUC ([5]; plasma, po, 20 mg/kg, Monkey, PO 20 mg/kg, read-out: AUCo-last) of 797 ng·h/mL, a clearance ([5]; plasma, Monkey, IV 5 mg/kg) of 19.2 mL/min/kg and an MRT last ([5]; plasma, Monkey, IV 5 mg/kg) of 2.3 h. The Vd ([5]; plasma, Monkey, IV 5 mg/kg, read-out: Vdss) was 3.1 L/kg, the half-life ([5]; plasma, Monkey, PO 20 mg/kg) was 8 h and the MRT last ([5]; plasma, Monkey, PO 20 mg/kg) was 11.9 h. For the same compound, the “Duration of analgesic effect” value [6] was “more than 4.5 hr”, the “Time after injection at which analgesic effect was observed” value [6] was 2 h and the “Plantar incision-induced mechanical allodynia” value ([6]; Arrb2 KO mice) was “not”. For the same compound, the “Plantar incision-induced mechanical allodynia” value ([6]; WT mice) was “significantly reduced”, the “Breathing frequency or tidal volume” value ([7]; on its own) was “had no effect” and the “Reduction in breathing frequency or tidal volume produced by morphine” value ([7]; with morphine) was “did not exacerbate”. For the same compound, the “Significant reduction in locomotion” value [8] was “absent”, the “Methamphetamine conditioned place preference” value [9] was “reduced” and the “Rotarod testing versus vehicle” value [10] was “no significant difference”. For the same compound, the “Duration of reduction of mechanical allodynia” value [11] was greater than 24 h, the “PTX-induced mechanical allodynia (increased PWT) versus vehicle” value ([11]; four weeks after PTX) was “significant reduction of mechanical allodynia” and the “Excitatory synaptic transmission (sEPSCs) in lamina IIo neurons” value (lamina IIo neurons) was “significantly suppressed”.
